From US20160151337A1, “ANNELATED PYRROLES AND THEIR USE AS CRAC INHIBITORS” (Grünenthal GmbH, priority 2013, published 2016)

How the values were obtained:
CRAC channel = target: T1, CRAC channel (Homo sapiens, UniProt Q96D31); assay: HEK Calcium Influx Assay (FLIPR), inhibition of store-operated Ca2+ entry after thapsigargin store depletion; type: cell-based; details: 10 μM compound, HEK293 cells, read-out: % inhib. [@ 10 μM] FLIPR
T1 construct: endogenous in cells; host or cells: HEK293 (ECACC), untransfected
T1 sequence (Q96D31 whole entry): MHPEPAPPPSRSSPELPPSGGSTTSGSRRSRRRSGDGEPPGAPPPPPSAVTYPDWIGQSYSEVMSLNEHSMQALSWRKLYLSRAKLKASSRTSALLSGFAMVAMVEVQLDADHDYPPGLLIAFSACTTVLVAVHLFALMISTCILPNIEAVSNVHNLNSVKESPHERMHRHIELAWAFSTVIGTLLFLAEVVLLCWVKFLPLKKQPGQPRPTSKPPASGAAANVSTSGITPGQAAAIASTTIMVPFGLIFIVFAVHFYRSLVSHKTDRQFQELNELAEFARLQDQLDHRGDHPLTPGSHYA
Procedure, shortened: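 HEK293 cells loaded with Calcium-4 dye in Ca2+-free HBS (pH 7.4), stores depleted with 2 μM thapsigargin for 10 min (100 μM EGTA); after 3 mM CaCl2 re-addition and 15 min steady-state, compounds added and FLIPR signal averaged 9.5–10 min post-dose. IC50 from 8-point 1:3.16 dilutions from 10 μM, normalised to DMSO and non-depleted wells.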

[1] = tested on: Interleukin-2 (IL-2) production/release in Jurkat T cells; assay: Jurkat IL-2 Production Assay (PHA-stimulated, IL-2 AlphaLisa); type: cell-based; details: Homo sapiens, PHA 15 μg/ml, 22 h, inhibition of IL-2 production
Procedure, shortened: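 Jurkat E6-1 cells (5*10^5/well, DMEM/F12 with 10% FCS) pretreated 30 min with compound, then stimulated 22 h with 15 μg/ml PHA at 37 °C. IC50 from 8-point 1:3.16 dilution starting at 10 μM.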

Compound | inhibition at 10 µM (CRAC channel) [%] | IC50 [1] [µM]
Cc1cc(C(F)(F)F)ncc1N1CCc2[nH]c(-c3c(F)cccc3F)cc2C1 [Example 73, 2-(2,6-Difluoro-phenyl)-5-[4-methyl-6-(trifluoromethyl)-pyridin-3-yl]-4,5,6,7-tetrahydro-1H-pyrrolo[3,2-c]pyridine] | > 70 | < 0.5
COc1cc(C(F)(F)F)ncc1N1CCc2[nH]c(-c3c(F)cccc3F)cc2C1 [Example 112, 2-(2,6-Difluoro-phenyl)-5-[4-methoxy-6-(trifluoromethyl)-pyridin-3-yl]-4,5,6,7-tetrahydro-1H-pyrrolo[3,2-c]pyridine] | < 50 | < 0.5
COc1ccc(OC)c(N2CCc3[nH]c(-c4c(F)cccc4F)cc3C2)c1 [Example 21, 2-(2,6-Difluoro-phenyl)-5-(2,5-dimethoxyphenyl)-4,5,6,7-tetrahydro-1H-pyrrolo[3,2-c]pyridine] | > 70 | 1 to 5
Cc1ccccc1N1CCc2[nH]c(-c3c(F)cccc3F)cc2C1 [Example 22, 2-(2,6-Difluoro-phenyl)-5-o-tolyl-4,5,6,7-tetrahydro-1H-pyrrolo[3,2-c]pyridine] | > 70 | 1 to 5
Fc1cccc(F)c1-c1cc2c([nH]1)CCN(c1cc3c(cc1Cl)OC(F)(F)O3)C2 [Example 9, 5-(6-Chloro-2,2-difluoro-1,3-benzodioxol-5-yl)-2-(2,6-difluoro-phenyl)-4,5,6,7-tetrahydro-1H-pyrrolo[3,2-c]pyridine] | < 50 | 1 to 5
Cc1cc(S(C)(=O)=O)ncc1N1CCc2[nH]c(-c3ccncc3F)cc2C1 [Example 90, 2-(3-Fluoro-pyridin-4-yl)-5-(4-methyl-6-methylsulfonyl-pyridin-3-yl)-4,5,6,7-tetrahydro-1H-pyrrolo[3,2-c]pyridine] | > 70 | 1 to 5
COc1cc(OC(F)F)ncc1N1CCc2[nH]c(-c3c(F)cccc3F)cc2C1 [Example 140, 5-[6-(Difluoro-methoxy)-4-methoxy-pyridin-3-yl]-2-(2,6-difluoro-phenyl)-4,5,6,7-tetrahydro-1H-pyrrolo[3,2-c]pyridine] | > 70 | < 0.5
Cc1sc(-c2cncnc2)nc1N1CCc2[nH]c(-c3c(F)cccc3F)cc2C1 [Example 30, 4-[2-(2,6-Difluoro-phenyl)-4,5,6,7-tetrahydro-1H-pyrrolo[3,2-c]pyridin-5-yl]-5-methyl-2-pyrimidin-5-yl-thiazole] | > 70 | 0.5 to 1
Cc1cc(S(C)(=O)=O)ncc1N1CCc2[nH]c(C3CCCCC3)cc2C1 [Example 72, 2-Cyclohexyl-5-(4-methyl-6-methylsulfonyl-pyridin-3-yl)-4,5,6,7-tetrahydro-1H-pyrrolo[3,2-c]pyridine] | > 70 | < 0.5
Cc1cc(S(=O)(=O)N2CCOCC2)ccc1N1CCc2[nH]c(-c3c(F)cccc3F)cc2C1 [Example 117, 4-[[4-[2-(2,6-Difluoro-phenyl)-4,5,6,7-tetrahydro-1H-pyrrolo[3,2-c]pyridin-5-yl]-3-methyl-phenyl]sulfonyl]-morpholine] | > 70 | 0.5 to 1
Cc1cc([S+](C)[O-])ccc1N1CCc2[nH]c(-c3c(F)cccc3F)cc2C1 (stereo not shown) [Example 87, 2-(2,6-Difluoro-phenyl)-5-[2-methyl-4-(methylsulfinyl)-phenyl]-4,5,6,7-tetrahydro-1H-pyrrolo[3,2-c]pyridine] | > 70 | 1 to 5
Cc1cc(S(=O)(=O)N(C)C2CC2)ccc1N1CCc2[nH]c(-c3c(F)cccc3F)cc2C1 [Example 120, N-Cyclopropyl-4-[2-(2,6-difluoro-phenyl)-4,5,6,7-tetrahydro-1H-pyrrolo[3,2-c]pyridin-5-yl]-N,3-dimethyl-benzenesulfonic acid amide] | < 50 | 1 to 5
Cc1cc(Cl)ccc1N1CCc2[nH]c(-c3c(F)cccc3F)cc2C1 [Example 11, 5-(4-Chloro-2-methyl-phenyl)-2-(2,6-difluoro-phenyl)-4,5,6,7-tetrahydro-1H-pyrrolo[3,2-c]pyridine] | < 50 | 0.5 to 1
Cc1sc(-c2ccn(C)n2)nc1N1CCc2[nH]c(-c3c(F)cccc3F)cc2C1 [Example 99, 4-[2-(2,6-Difluoro-phenyl)-4,5,6,7-tetrahydro-1H-pyrrolo[3,2-c]pyridin-5-yl]-5-methyl-2-(1-methyl-1H-pyrazol-3-yl)-thiazole] | > 70 | < 0.5
Cc1sc(-c2cccnc2)nc1N1CCc2[nH]c(-c3c(F)cccc3F)cc2C1 [Example 2, 4-[2-(2,6-Difluoro-phenyl)-4,5,6,7-tetrahydro-1H-pyrrolo[3,2-c]pyridin-5-yl]-5-methyl-2-pyridin-3-yl-thiazole] | > 70 | < 0.5
Cc1cc(Cl)c(F)cc1N1CCc2[nH]c(-c3c(F)cccc3F)cc2C1 [Example 71, 5-(4-Chloro-5-fluoro-2-methyl-phenyl)-2-(2,6-difluoro-phenyl)-4,5,6,7-tetrahydro-1H-pyrrolo[3,2-c]pyridine] | < 50 | 1 to 5
Cc1cc(N(C)S(C)(=O)=O)ccc1N1CCc2[nH]c(-c3c(F)cccc3F)cc2C1 [Example 132, N-[4-[2-(2,6-Difluoro-phenyl)-4,5,6,7-tetrahydro-1H-pyrrolo[3,2-c]pyridin-5-yl]-3-methyl-phenyl]-N-methyl-methanesulfonic acid amide] | < 50 | 1 to 5
Cc1sc(-c2cccnc2)nc1N1CCc2[nH]c(-c3c(F)cccc3F)c(I)c2C1 [Example 66, 4-[2-(2,6-Difluoro-phenyl)-3-iodo-4,5,6,7-tetrahydro-1H-pyrrolo[3,2-c]pyridin-5-yl]-5-methyl-2-pyridin-3-yl-thiazole] | < 50 | 1 to 5
CNS(=O)(=O)c1ccc(N2CCc3[nH]c(C4CCC(F)(F)CC4)cc3C2)c(C)c1 [Example 128, 4-[2-(4,4-Difluoro-cyclohexyl)-4,5,6,7-tetrahydro-1H-pyrrolo[3,2-c]pyridin-5-yl]-N,3-dimethyl-benzenesulfonic acid amide] | < 50 | 1 to 5
COC1(c2cc(N3CCc4[nH]c(-c5c(F)cccc5F)cc4C3)n(C)n2)CC1 [Example 137, 2-(2,6-Difluoro-phenyl)-5-[5-(1-methoxy-cyclopropyl)-2-methyl-2H-pyrazol-3-yl]-4,5,6,7-tetrahydro-1H-pyrrolo[3,2-c]pyridine] | > 70 | 1 to 5
Cc1cc(Cl)ncc1N1CCc2[nH]c(-c3c(F)cccc3F)cc2C1 [Example 4, 5-(6-Chloro-4-methyl-pyridin-3-yl)-2-(2,6-difluoro-phenyl)-4,5,6,7-tetrahydro-1H-pyrrolo[3,2-c]pyridine] | > 70 | < 0.5
CCOc1cc(C)c(N2CCc3[nH]c(-c4c(F)cccc4F)cc3C2)cn1 [Example 69, 2-(2,6-Difluoro-phenyl)-5-(6-ethoxy-4-methyl-pyridin-3-yl)-4,5,6,7-tetrahydro-1H-pyrrolo[3,2-c]pyridine] | > 70 | 0.5 to 1
CCn1nc(C2CC2)cc1N1CCc2[nH]c(-c3c(F)cccc3F)cc2C1 [Example 126, 5-(5-Cyclopropyl-2-ethyl-2H-pyrazol-3-yl)-2-(2,6-difluoro-phenyl)-4,5,6,7-tetrahydro-1H-pyrrolo[3,2-c]pyridine] | > 70 | 0.5 to 1
CCNS(=O)(=O)c1ccc(N2CCc3[nH]c(-c4c(F)cccc4F)cc3C2)c(C)c1 [Example 131, 4-[2-(2,6-Difluoro-phenyl)-4,5,6,7-tetrahydro-1H-pyrrolo[3,2-c]pyridin-5-yl]-N-ethyl-3-methyl-benzenesulfonic acid amide] | < 50 | 1 to 5
Cc1sc(-c2cccnc2)nc1N1CCc2[nH]c(-c3c(F)cccc3F)cc2C1=O [Example 1, 2-(2,6-Difluoro-phenyl)-5-(5-methyl-2-pyridin-3-yl-thiazol-4-yl)-1,5,6,7-tetrahydro-pyrrolo[3,2-c]pyridin-4-one] | 50 to 70 | 1 to 5
CCOc1cc(C(F)(F)F)ncc1N1CCc2[nH]c(-c3c(F)cccc3F)cc2C1 [Example 116, 2-(2,6-Difluoro-phenyl)-5-[4-ethoxy-6-(trifluoromethyl)-pyridin-3-yl]-4,5,6,7-tetrahydro-1H-pyrrolo[3,2-c]pyridine] | > 70 | < 0.5
Cn1nc(N2CCc3[nH]c(-c4c(F)cccc4F)cc3C2)cc1C1CC1 [Example 107, 5-(5-Cyclopropyl-1-methyl-1H-pyrazol-3-yl)-2-(2,6-difluoro-phenyl)-4,5,6,7-tetrahydro-1H-pyrrolo[3,2-c]pyridine] | > 70 | 1 to 5
Cc1cc(S(C)(=O)=O)ncc1N1CCc2[nH]c(-c3cccnc3C)cc2C1 [Example 83, 5-(4-Methyl-6-methylsulfonyl-pyridin-3-yl)-2-(2-methyl-pyridin-3-yl)-4,5,6,7-tetrahydro-1H-pyrrolo[3,2-c]pyridine] | > 70 | 1 to 5
Cc1ccc(Cl)cc1N1CCc2[nH]c(-c3c(F)cccc3Cl)cc2C1 [Example 64, 2-(2-Chloro-6-fluoro-phenyl)-5-(5-chloro-2-methyl-phenyl)-4,5,6,7-tetrahydro-1H-pyrrolo[3,2-c]pyridine] | < 50 | 1 to 5
